Measured values as given in US20260217683A1, “PYRIDAZINONE HETEROCYCLIC COMPOUND MYOSIN II INHIBITOR AND USE THEREOF” (Xizang Haisco Pharmaceutical Co., Ltd., priority 2023, published 2026).

What was measured:
smooth muscle myosin S1 = biological target: T1, smooth muscle myosin S1 (Gallus gallus, UniProt P10587); assay: Inhibition of hydrolysis of ATP by smooth muscle myosin S1 fragments; type: biochemical; details: 100 μM compound
T1 construct: purchased Cytoskeleton #CS-MYS05
Method in brief: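 Smooth muscle myosin S1 fragment (0.7 mg/mL in PM12 buffer with 1 mM DTT) was mixed with compound and F-actin polymer prepared from cardiac actin, then 5 mM ATP working solution started the reaction at 37° C. for 20 min. Released Pi was measured with CytoPhos reagent at 650 nm against a standard curve, and inhibition was calculated relative to positive control wells.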

CYP1A2 = biological target: T2, CYP1A2 (Homo sapiens, UniProt P05177); assay: CYP450 enzyme inhibition, human liver microsomes, CYP1A2; type: in vitro ADME
T2 construct: incubated with human liver microsomes and test compounds of different concentrations; from tissue; host or cells: human liver microsomes
T2 sequence (P05177 1-516): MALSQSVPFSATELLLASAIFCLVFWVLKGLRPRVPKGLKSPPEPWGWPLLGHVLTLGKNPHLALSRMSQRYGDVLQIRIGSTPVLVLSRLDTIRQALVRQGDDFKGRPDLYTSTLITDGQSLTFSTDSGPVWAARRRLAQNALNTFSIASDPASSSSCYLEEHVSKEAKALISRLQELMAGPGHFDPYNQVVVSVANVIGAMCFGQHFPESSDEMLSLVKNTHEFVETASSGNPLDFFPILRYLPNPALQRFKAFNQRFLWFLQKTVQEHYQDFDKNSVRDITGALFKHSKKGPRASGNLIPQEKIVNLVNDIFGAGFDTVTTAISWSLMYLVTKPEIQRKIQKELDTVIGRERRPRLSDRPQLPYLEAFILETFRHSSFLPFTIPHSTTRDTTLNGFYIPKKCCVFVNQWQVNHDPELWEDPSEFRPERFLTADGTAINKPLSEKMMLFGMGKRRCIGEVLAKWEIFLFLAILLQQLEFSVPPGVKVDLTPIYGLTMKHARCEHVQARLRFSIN
Procedure: The purpose of this study was to evaluate the effect of the test compound on the activity of five isoenzymes (CYP1A2, CYP2C9, CYP2C19, CYP2D6 and CYP3A4) of human liver microsomal cytochrome P450 (CYP) by using an in vitro testing system. The specific probe substrates of CYP450 isoenzymes were incubated with human liver microsomes and test compounds of different concentrations, and reduced nicotinamide adenine dinucleotide phosphate (NADPH) was added to initiate the reaction. After the completion of the reaction, the sample was treated and liquid chromatography-tandem mass spectrometry (LC-MS/MS) was used to quantitatively detect metabolites produced by specific substrates, changes in CYP enzyme activity were determined, and IC50 value was calculated to evaluate the inhibitory potential of the test compound on each CYP enzyme subtype.

T1 sequence (P10587 84-789 limits assumed): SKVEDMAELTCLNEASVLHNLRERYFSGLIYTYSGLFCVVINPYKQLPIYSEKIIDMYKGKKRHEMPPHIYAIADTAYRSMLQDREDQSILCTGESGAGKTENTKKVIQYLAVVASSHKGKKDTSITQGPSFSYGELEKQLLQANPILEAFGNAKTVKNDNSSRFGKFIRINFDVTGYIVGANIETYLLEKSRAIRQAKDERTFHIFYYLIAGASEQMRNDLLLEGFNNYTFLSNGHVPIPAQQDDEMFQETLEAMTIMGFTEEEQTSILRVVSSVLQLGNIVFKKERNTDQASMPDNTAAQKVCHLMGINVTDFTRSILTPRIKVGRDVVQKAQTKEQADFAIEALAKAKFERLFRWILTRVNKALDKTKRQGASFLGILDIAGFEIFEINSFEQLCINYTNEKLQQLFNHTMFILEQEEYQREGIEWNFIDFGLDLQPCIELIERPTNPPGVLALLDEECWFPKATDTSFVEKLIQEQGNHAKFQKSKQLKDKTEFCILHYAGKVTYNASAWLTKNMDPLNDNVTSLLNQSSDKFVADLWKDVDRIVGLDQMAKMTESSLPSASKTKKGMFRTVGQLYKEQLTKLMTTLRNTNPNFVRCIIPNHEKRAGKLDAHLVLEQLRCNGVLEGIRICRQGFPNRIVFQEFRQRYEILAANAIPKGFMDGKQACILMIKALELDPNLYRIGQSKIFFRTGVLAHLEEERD
T1 sequence (P02607 whole entry partner, the tested form may be a part): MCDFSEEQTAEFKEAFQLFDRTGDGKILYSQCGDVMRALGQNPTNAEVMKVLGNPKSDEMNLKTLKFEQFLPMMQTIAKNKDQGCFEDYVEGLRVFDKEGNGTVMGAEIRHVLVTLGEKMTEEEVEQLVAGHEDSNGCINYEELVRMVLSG

## O=c1ccc(-c2cnc(OCC(F)(F)F)nc2)nn1Cc1ccc2c(c1)CCC2 [Compound 57]
Smooth muscle myosin S1
  inhibition at 100 µM: 3.3%

## O=C1CCc2ccc(Cn3nc(-c4cnc(OCC(F)(F)F)nc4)ccc3=O)cc21 [Compound 88]
CYP1A2
  IC50: > 30 µM

## O=C1CCc2ccc(Cn3nc(-c4cnc(OCC(F)F)nc4)ccc3=O)cc21 [Compound 131]
Smooth muscle myosin S1
  inhibition at 100 µM: -9%
CYP1A2
  IC50: > 30 µM

## O=C1CCc2ccc(Cn3nc(-c4cnc(OC5CC(F)(F)C5)nc4)ccc3=O)cc21 [Compound 141]
Smooth muscle myosin S1
  inhibition at 100 µM: 3%
CYP1A2
  IC50: > 30 µM

## O=C1CCc2ccc(Cn3nc(-c4cnc(O[C@@H]5CCOC5)nc4)ccc3=O)cc21 [Compound 149]
Smooth muscle myosin S1
  inhibition at 100 µM: 2%
CYP1A2
  IC50: > 30 µM

## O=C1CCc2ccc(Cn3nc(-c4cnc(O[C@H]5CCOC5)nc4)ccc3=O)cc21 [Compound 150]
Smooth muscle myosin S1
  inhibition at 100 µM: 4%

## O=C1CCc2ccc(Cn3nc(-c4cnc(Oc5cncc(Cl)c5)nc4)ccc3=O)cc21 [Compound 151]
Smooth muscle myosin S1
  inhibition at 100 µM: 2%
CYP1A2
  IC50: > 30 µM

## N#CC1(COc2ncc(-c3ccc(=O)n(Cc4ccc5c(c4)C(=O)CC5)n3)cn2)CC1 [Compound 158]
Smooth muscle myosin S1
  inhibition at 100 µM: 13%
CYP1A2
  IC50: > 30 µM

## O=C1CCc2ccc(Cn3nc(-c4cnc(OC5COCC5(F)F)nc4)ccc3=O)cc21 (stereo not shown) [Compound 164]
Smooth muscle myosin S1
  inhibition at 100 µM: 17%
CYP1A2
  IC50: > 30 µM

## O=C1CCc2c(F)cc(Cn3nc(-c4cnc(O[C@H]5CCOC5)nc4)ccc3=O)cc21 [Compound 165]
Smooth muscle myosin S1
  inhibition at 100 µM: 12%
CYP1A2
  IC50: > 30 µM

## O=C1CCc2c(F)cc(Cn3nc(-c4cnc(OCC(F)F)nc4)ccc3=O)cc21 [Compound 167]
Smooth muscle myosin S1
  inhibition at 100 µM: 17%
CYP1A2
  IC50: > 30 µM
